From ChEMBL document CHEMBL2169838, “Synthesis and biological evaluation of the 1-arylpyrazole class of σ(1) receptor antagonists: identification of 4-{2-[5-methyl-1-(naphthalen-2-yl)-1H-pyrazol-3-yloxy]ethyl}morpholine (S1RA, E-52862)” (J Med Chem, 2012)
Values after ≈ are worked out from the molar mass of the structure shown.

How the values were obtained:
[1] = biological target: T1, Cytochrome P450 2E1 (Homo sapiens, UniProt P05181); test: Inhibition of human recombinant CYP2E1; type: ADME
[2] = biological target: T2, Cytochrome P450 2D6 (Homo sapiens, UniProt P10635); test: Inhibition of human recombinant CYP2D6; type: ADME
T2 sequence (P10635 whole entry): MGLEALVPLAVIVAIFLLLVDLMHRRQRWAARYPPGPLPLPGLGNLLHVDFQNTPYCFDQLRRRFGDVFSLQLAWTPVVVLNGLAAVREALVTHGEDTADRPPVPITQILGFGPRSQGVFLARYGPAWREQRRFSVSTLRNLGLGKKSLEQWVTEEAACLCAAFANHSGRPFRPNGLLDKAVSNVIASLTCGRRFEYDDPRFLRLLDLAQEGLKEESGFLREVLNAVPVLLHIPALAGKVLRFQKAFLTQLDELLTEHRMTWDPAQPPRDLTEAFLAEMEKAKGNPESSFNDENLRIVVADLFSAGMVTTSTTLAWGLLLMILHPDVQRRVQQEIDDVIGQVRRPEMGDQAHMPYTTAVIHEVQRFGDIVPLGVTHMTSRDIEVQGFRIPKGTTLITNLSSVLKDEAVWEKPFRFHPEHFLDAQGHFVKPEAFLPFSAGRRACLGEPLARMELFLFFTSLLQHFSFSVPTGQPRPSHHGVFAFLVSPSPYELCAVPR

[3] = Lipophilicity, log D of the compound by PH-metrivc technique; type: physicochemical; details: octanol/water
[4] = biological target: T3, Cytochrome P450 1A2 (Homo sapiens, UniProt P05177); test: Inhibition of human recombinant CYP1A2; type: ADME
T3 sequence (P05177 whole entry): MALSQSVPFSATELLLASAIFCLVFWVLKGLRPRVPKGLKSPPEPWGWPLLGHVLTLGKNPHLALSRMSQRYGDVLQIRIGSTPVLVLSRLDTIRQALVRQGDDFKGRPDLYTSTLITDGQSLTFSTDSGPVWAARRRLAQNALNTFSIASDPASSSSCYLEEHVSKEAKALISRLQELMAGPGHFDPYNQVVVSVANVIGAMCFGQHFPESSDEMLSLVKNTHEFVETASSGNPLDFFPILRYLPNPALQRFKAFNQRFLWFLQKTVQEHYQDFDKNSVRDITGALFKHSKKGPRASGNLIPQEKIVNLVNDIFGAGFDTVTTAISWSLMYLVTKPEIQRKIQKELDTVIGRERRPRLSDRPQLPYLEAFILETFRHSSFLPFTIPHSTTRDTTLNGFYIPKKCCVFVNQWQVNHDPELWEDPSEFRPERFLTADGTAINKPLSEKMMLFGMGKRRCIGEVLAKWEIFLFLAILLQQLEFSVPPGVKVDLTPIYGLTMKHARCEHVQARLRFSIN

[5] = biological target: T4, Cytochrome P450 2B6 (Homo sapiens, UniProt P20813); test: Inhibition of human recombinant CYP2B6; type: ADME
T4 sequence (P20813 whole entry): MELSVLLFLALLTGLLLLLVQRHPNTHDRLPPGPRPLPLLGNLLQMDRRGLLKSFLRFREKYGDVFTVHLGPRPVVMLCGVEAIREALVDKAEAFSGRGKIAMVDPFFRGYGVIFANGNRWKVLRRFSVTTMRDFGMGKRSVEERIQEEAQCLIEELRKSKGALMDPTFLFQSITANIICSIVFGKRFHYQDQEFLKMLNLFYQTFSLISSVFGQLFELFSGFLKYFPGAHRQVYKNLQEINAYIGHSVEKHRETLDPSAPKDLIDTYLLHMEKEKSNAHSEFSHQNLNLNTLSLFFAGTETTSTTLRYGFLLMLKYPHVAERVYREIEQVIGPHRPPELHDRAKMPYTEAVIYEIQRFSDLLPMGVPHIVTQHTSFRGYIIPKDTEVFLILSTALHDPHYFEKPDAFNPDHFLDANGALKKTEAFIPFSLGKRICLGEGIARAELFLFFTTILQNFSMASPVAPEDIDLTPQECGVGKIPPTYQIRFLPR

[6] = biological target: T5, Cytochrome P450 2C8 (Homo sapiens, UniProt P10632); test: Inhibition of human recombinant CYP2C8; type: ADME
T5 sequence (P10632 whole entry): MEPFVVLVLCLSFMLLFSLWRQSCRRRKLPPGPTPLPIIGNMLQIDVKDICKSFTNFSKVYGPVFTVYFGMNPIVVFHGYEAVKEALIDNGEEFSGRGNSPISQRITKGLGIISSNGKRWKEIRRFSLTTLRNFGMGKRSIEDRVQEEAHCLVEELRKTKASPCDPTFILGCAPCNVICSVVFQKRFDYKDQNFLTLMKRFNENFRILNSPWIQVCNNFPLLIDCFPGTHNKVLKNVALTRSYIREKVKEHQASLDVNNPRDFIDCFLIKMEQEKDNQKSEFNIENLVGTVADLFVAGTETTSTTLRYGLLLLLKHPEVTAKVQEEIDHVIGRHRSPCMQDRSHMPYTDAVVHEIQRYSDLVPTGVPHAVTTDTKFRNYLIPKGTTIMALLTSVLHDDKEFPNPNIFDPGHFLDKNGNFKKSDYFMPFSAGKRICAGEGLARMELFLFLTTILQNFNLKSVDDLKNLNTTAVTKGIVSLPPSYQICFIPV

[7] = biological target: T6, Cytochrome P450 2C9 (Homo sapiens, UniProt P11712); test: Inhibition of human recombinant CYP2C9; type: ADME
T6 sequence (P11712 whole entry): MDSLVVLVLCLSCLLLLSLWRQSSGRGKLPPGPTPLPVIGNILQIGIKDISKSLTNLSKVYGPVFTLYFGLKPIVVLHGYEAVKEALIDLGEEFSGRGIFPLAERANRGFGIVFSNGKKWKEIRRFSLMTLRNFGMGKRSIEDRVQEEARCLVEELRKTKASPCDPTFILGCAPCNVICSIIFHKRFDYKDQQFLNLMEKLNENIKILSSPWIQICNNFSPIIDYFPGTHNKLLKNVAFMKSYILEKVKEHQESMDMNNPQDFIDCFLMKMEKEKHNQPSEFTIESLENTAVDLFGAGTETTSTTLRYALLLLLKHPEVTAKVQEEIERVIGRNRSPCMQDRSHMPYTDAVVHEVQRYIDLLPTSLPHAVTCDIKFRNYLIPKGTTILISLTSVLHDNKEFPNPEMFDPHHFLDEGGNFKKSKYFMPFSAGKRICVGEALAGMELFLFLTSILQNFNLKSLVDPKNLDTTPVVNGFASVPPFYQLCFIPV

[8] = biological target: T1, Cytochrome P450 2E1; test: Inhibition of CYP2E1 in human liver microsomes; type: ADME, Microsome
[9] = biological target: T7, Cytochrome P450 2C19 (Homo sapiens, UniProt P33261); test: Inhibition of CYP2C19 in human liver microsomes; type: ADME, Microsome
T7 sequence (P33261 whole entry): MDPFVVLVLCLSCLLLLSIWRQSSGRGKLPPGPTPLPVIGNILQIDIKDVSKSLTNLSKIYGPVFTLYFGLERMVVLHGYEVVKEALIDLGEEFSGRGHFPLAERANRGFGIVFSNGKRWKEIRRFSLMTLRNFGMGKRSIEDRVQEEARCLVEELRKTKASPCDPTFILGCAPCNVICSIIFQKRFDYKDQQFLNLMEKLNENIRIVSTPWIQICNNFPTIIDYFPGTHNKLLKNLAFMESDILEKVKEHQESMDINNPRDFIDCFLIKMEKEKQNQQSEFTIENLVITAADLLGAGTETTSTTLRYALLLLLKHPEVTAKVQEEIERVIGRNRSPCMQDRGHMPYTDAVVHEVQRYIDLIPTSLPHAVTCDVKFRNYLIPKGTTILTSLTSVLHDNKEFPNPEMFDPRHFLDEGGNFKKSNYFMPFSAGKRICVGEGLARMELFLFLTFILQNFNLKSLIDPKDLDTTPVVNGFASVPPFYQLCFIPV

[10] = biological target: T6, Cytochrome P450 2C9; test: Inhibition of CYP2C9 in human liver microsomes; type: ADME, Microsome
[11] = biological target: T5, Cytochrome P450 2C8; test: Inhibition of CYP2C8 in human liver microsomes; type: ADME, Microsome
[12] = biological target: T4, Cytochrome P450 2B6; test: Inhibition of CYP2B6 in human liver microsomes; type: ADME, Microsome
[13] = system: Mus musculus; test: Cmax in CD1 mouse at 10 mg/kg, po at 0.5 hrs; type: ADME, organism-based; parameters: dose 10 mg/kg, route oral; details: in vivo
[14] = biological target: T3, Cytochrome P450 1A2; test: Inhibition of CYP1A2 in human liver microsomes; type: ADME, Microsome
[15] = AUC in CD1 mouse at 10 mg/kg, po; type: ADME, organism-based; parameters: dose 10 mg/kg, route oral; details: plasma
[16] = Apparent permeability across human Caco2 cells at 10 uM after 2 hrs; type: ADME, cell-based; details: Caco-2
[17] = system: Mus musculus; test: Neurotoxicity in CD1 mouse assessed as motor impairment at 32 to 64 mg/kg, ip measured after 30 to 180 mins by rotarod test; type: toxicity, organism-based; parameters: route intraperitoneal; details: in vivo
[18] = system: Mus musculus; test: Antihyperalgesic activity in ip dosed CD1 mouse partial sciatic nerve ligation model assessed as inhibition of thermal hyperalgesia administered 45 mins by plantar test; type: functional
[19] = system: Mus musculus; test: Antiallodynic activity in ip dosed CD1 mouse partial sciatic nerve ligation model assessed as inhibition of mechanical allodynia administered 30 mins by von Frey test; type: functional
[20] = biological target: T8, 5-hydroxytryptamine receptor 2B (Homo sapiens, UniProt P41595); test: Binding affinity to human 5HT2B receptor
T8 sequence (P41595 whole entry): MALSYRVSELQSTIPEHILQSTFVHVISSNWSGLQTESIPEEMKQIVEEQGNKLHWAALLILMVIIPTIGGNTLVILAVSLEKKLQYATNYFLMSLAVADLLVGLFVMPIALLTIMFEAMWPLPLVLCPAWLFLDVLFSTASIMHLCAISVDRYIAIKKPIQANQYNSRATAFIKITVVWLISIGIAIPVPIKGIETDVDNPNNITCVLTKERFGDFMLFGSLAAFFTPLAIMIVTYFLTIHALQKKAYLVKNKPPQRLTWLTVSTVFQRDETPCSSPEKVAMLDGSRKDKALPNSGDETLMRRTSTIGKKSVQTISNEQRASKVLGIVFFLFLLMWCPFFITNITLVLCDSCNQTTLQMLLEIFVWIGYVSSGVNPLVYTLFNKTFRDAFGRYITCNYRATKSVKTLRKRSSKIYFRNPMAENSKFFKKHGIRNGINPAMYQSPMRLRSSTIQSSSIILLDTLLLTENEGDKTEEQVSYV

[21] = biological target: T8, 5-hydroxytryptamine receptor 2B; test: Antagonist activity at human 5HT2B receptor; type: functional
[22] = Binding affinity to rat sigma 2 receptor
[23] = system: Mus musculus; test: Inhibition of capsaicin-induced mechanical hypersensitivity in CD1 mouse assessed as paw withdrawal latency at 32 mg/kg, ip administered 15 mins prior to capsaicin challenge measured 30 mins post capsaicin challenge; type: functional; details: route intraperitoneal
[24] = system: Mus musculus; test: Analgesic activity in CD1 mouse assessed as inhibition of capsaicin-induced mechanical hypersensitivity at 16 mg/kg, ip administered 15 mins prior to capsaicin challenge measured 30 mins post capsaicin challenge; type: functional; details: route intraperitoneal
[25] = Intrinsic clearance in human liver microsomes assessed as per mg of protein at 10 uM; type: ADME, Microsome; details: read-out: CLH
[26] = Thermodynamic solubility of the compound in phosphate buffer at pH 7.4; type: physicochemical; details: read-out: Therm_solubility
[27] = Dissociation constant, pKa of the compound; type: physicochemical
[28] = Displacement of [3H]di-o-tolylguanidine from sigma 2 receptor in guinea pig brain membranes after 120 mins by scintillation counter; type: cell membranes, Cavia porcellus, Membrane
[29] = biological target: T7, Cytochrome P450 2C19; test: Inhibition of human recombinant CYP2C19; type: ADME
[30] = biological target: T2, Cytochrome P450 2D6; test: Inhibition of CYP2D6 in human liver microsomes; type: ADME, Microsome
[31] = Partition coefficient, log P of the compound by PH-metrivc technique; type: physicochemical; details: octanol/water

T1 sequence (P05181 whole entry): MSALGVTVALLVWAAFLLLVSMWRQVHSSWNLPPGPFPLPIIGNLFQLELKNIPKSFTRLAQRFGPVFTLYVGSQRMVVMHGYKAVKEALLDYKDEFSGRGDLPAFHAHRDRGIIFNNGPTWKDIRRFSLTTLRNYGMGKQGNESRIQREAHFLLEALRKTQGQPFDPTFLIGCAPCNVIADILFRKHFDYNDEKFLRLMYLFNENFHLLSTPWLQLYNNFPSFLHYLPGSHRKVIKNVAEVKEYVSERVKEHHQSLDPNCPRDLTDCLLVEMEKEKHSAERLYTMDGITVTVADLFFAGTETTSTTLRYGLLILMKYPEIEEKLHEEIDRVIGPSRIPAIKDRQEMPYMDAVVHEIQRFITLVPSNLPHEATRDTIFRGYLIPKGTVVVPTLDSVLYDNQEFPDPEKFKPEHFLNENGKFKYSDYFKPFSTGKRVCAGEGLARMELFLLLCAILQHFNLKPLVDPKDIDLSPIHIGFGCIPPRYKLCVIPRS

Cc1cc(OCCN2CCOCC2)nn1-c1ccc2ccccc2c1
IC50 [1]: > 10 µM | IC50 [2]: > 10 µM | logD [3]: 3.4 | IC50 [4]: > 10 µM | IC50 [5]: > 10 µM | IC50 [6]: > 10 µM | IC50 [7]: > 10 µM | IC50 [8]: > 10 µM | IC50 [9]: > 10 µM | IC50 [10]: > 10 µM | IC50 [11]: > 10 µM | IC50 [12]: > 10 µM | Cmax [13]: 62 ng/mL | IC50 [14]: > 10 µM | AUC [15]: 958 ng·h/mL | Papp at 2 h, 10 µM [16]: 37 ×10⁻⁶ cm/s | Activity [17]: Non-toxic | inhibition [18]: Dose-dependent effect | ED50 ([18]; 0.75 h): 18.8 mg/kg | inhibition [19]: Dose-dependent effect | ED50 ([19]; 0.5 h): 23.4 mg/kg | Ki [20]: 0.328 µM | IC50 [21]: 4.7 µM | Ki [22]: 9.3 µM | inhibition in vivo at 32 mg/kg [23]: 62% | inhibition in vivo at 16 mg/kg [24]: 43% | microsomal CLint at 10 µM [25]: 3 µL/min/mg | solubility thermodynamic [26]: 200 µg/mL (≈ 593 µM) | pKa [27]: 6.5 | Ki [28]: > 1 µM | IC50 [29]: > 10 µM | IC50 [30]: > 10 µM | logP [31]: 3.5
